# Assay results as given in patent US12679843B2, “Pyrrolopyrimidine amines as complement inhibitors” (BioCryst Pharmaceuticals, Inc., priority 2020, dated 2026).
# Target: Factor D (Homo sapiens, UniProt P00746)
# Experiment: Factor D esterolytic assay (Z-Lys-SBzl thioester substrate, DTNB, 405 nm)
# Format: biochemical
# Settings: substrate Z-Lys-SBzl 1.29 mM, 100 mM HEPES, 500 mM NaCl, pH 7.5, 10% DMSO, tested a minimum of three times
# Method in brief: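 Run in pH 7.5 HEPES (100 mM) with 500 mM NaCl and 10% DMSO, with compound preincubated at room temperature or not before adding 1.29 mM Z-Lys-SBzl. Free thiol released by Factor D reacts with DTNB, and rate is followed at 405 nm minus 690 nm over 600 s. IC50 derives from rate-based inhibition, minimum three replicates.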
# Factor D, sequence (P00746 26-253): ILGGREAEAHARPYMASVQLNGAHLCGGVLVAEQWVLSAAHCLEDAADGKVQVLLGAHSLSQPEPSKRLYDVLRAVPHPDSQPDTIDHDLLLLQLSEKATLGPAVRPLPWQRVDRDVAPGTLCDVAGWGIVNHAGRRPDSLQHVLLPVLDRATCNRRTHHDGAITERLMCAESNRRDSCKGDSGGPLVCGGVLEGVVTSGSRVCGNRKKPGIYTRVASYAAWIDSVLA
row,IC50,SMILES
1,< 100 nM,"Cc1ncc(-c2cc(C)c3c(c2)c2c(N)ncnc2n3CC(=O)N2C[C@](C)(F)C[C@H]2C(=O)Nc2cccc(Cl)n2)cn1 [Compound 343a, (2S,4R)-1-(2-(4-amino-8-methyl-6-(2-methylpyrimidin-5-yl)-9H-pyrimido[4,5-b]indol-9-yl)acetyl)-N-(6-chloropyridin-2-yl)-4-fluoro-4-methylpyrrolidine-2-carboxamide]"
2,100 to 1000 nM,"Nc1ncnc2c1ncn2CC(=O)N1C[C@H](F)C[C@H]1C(=O)Nc1cccc(Br)n1 [Compound 93a, (2S,4R)-1-(2-(6-amino-9H-purin-9-yl)acetyl)-N-(6-bromopyridin-2-yl)-4-fluoropyrrolidine-2-carboxamide]"
3,> 1000 nM,"COC(=O)c1cnc2c(ccn2CC(=O)N2[C@@H]3C[C@@H]3C[C@H]2C(=O)Nc2cccc(Br)n2)c1 [Compound 127d, methyl 1-(2-((1R,3S,5R)-3-((6-bromopyridin-2-yl)carbamoyl)-2-azabicyclo[3.1.0]hexan-2-yl)-2-oxoethyl)-1H-pyrrolo[2,3-b]pyridine-5-carboxylate]"
